Measurements taken from US12227495B2, “Herbicidal compounds” (SYNGENTA CROP PROTECTION AG, priority 2018, dated 2025).

Tests used:
Type in all cases: in vivo
Lolium perenne (LOLPE) [1] = assay: Pre-emergence herbicide test, glasshouse, percentage damage; settings: rate 1000 g/ha, evaluated after 13 days
How it was run: (§1)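 Spray: acetone/water (50:50) with 0.5% Tween 20, 500 g/ha unless stated; pre-emergence 1 d after sowing, post-emergence at 8 d. Glasshouse 24/16 °C, 14 h light, 65% RH, watered twice daily. Read at 13 d, % damage as 1-5 score.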

[2] = tested on: Echinochloa crus-galli (ECHCG); assay: as above; settings: rate 1000 g/ha, evaluated after 13 days
How it was run: as §1

Solanum nigrum (SOLNI) [3] = assay: as above; settings: rate 1000 g/ha, evaluated after 13 days
How it was run: as §1

[4] = tested on: Ipomoea hederacea (IPOHE); assay: as above; settings: rate 1000 g/ha, evaluated after 13 days
How it was run: as §1

[5] = tested on: Amaranthus retoflexus (AMARE); assay: as above; settings: rate 1000 g/ha, evaluated after 13 days
How it was run: as §1

Setaria faberi (SETFA) [6] = assay: as above; settings: rate 1000 g/ha, evaluated after 13 days
How it was run: as §1

Lolium perenne (LOLPE) [7] = assay: Post-emergence herbicide test, glasshouse, percentage damage; settings: 1000 g/ha, evaluated after 13 days
How it was run: as §1

[8] = tested on: Echinochloa crus-galli (ECHCG); assay: as above; settings: 1000 g/ha, evaluated after 13 days
How it was run: as §1

Solanum nigrum (SOLNI) [9] = assay: as above; settings: 1000 g/ha, evaluated after 13 days
How it was run: as §1

[10] = tested on: Ipomoea hederacea (IPOHE); assay: as above; settings: 1000 g/ha, evaluated after 13 days
How it was run: as §1

[11] = tested on: Amaranthus retoflexus (AMARE); assay: as above; settings: 1000 g/ha, evaluated after 13 days
How it was run: as §1

Setaria faberi (SETFA) [12] = assay: as above; settings: 1000 g/ha, evaluated after 13 days
How it was run: as §1

SMILES	Pre-emergence Test LOLPE percentage damage (five point scale) (Lolium perenne (LOLPE) [1])	Pre-emergence Test ECHCG percentage damage (five point scale) [2]	Pre-emergence Test SOLNI percentage damage (five point scale) (Solanum nigrum (SOLNI) [3])	Pre-emergence Test IPOHE percentage damage (five point scale) [4]	Pre-emergence Test AMARE percentage damage (five point scale) [5]	Pre-emergence Test SETFA percentage damage (five point scale) (Setaria faberi (SETFA) [6])	percentage damage caused to the plant, LOLPE (Lolium perenne (LOLPE) [7])	percentage damage caused to the plant, ECHCG [8]	percentage damage caused to the plant, SOLNI (Solanum nigrum (SOLNI) [9])	percentage damage caused to the plant, IPOHE [10]	percentage damage caused to the plant, AMARE [11]	percentage damage caused to the plant, SETFA (Setaria faberi (SETFA) [12])
Fc1cc(C(F)(F)F)cnc1Oc1cccc(Cl)c1-c1cc(C(F)F)no1 [Compound A117]	4 (4=61-80%)	4 (4=61-80%)	2 (2=21-40%)	5 (5=81-100%)	5 (5=81-100%)	5 (5=81-100%)	4 (4=61-80%)	4 (4=61-80%)	4 (4=61-80%)	5 (5=81-100%)	5 (5=81-100%)	4 (4=61-80%)
N#Cc1cccnc1Oc1cccc(Cl)c1-c1cc(C(F)F)no1 [Compound A120]	2 (2=21-40%)	5 (5=81-100%)	4 (4=61-80%)	3 (3=41-60%)	5 (5=81-100%)	5 (5=81-100%)	3 (3=41-60%)	4 (4=61-80%)	5 (5=81-100%)	4 (4=61-80%)	5 (5=81-100%)	5 (5=81-100%)
Fc1cc(Cl)cnc1Oc1ccccc1-n1cc(Cl)cn1 [Compound A24, 5-chloro-2-[2-(4-chloropyrazol-1-yl)phenoxy]-3-fluoro-pyridine]	4 (4=61-80%)	5 (5=81-100%)	3 (3=41-60%)	3 (3=41-60%)	5 (5=81-100%)	5 (5=81-100%)	3 (3=41-60%)	4 (4=61-80%)	4 (4=61-80%)	3 (3=41-60%)	4 (4=61-80%)	4 (4=61-80%)
N#Cc1cccc(Oc2ncc(F)cc2F)c1-n1cc(C(F)(F)F)cn1 [Compound A34]	5 (5=81-100%)	5 (5=81-100%)	5 (5=81-100%)	5 (5=81-100%)	5 (5=81-100%)	5 (5=81-100%)	5 (5=81-100%)	5 (5=81-100%)	5 (5=81-100%)	5 (5=81-100%)	5 (5=81-100%)	5 (5=81-100%)
O=[N+]([O-])c1ccc(Oc2ccccc2-n2cc(C(F)(F)F)cn2)nc1 [Compound A14, 5-nitro-2-[2-[4-(trifluoromethyl)pyrazol-1-yl]phenoxy]pyridine]	5 (5=81-100%)	5 (5=81-100%)	5 (5=81-100%)	3 (3=41-60%)	5 (5=81-100%)	5 (5=81-100%)	5 (5=81-100%)	5 (5=81-100%)	5 (5=81-100%)	4 (4=61-80%)	5 (5=81-100%)	5 (5=81-100%)
Fc1cc(Cl)cnc1Oc1cccc(Cl)c1-n1cc(C(F)(F)F)cn1 [Compound A159]	5 (5=81-100%)	5 (5=81-100%)	5 (5=81-100%)	2 (2=21-40%)	5 (5=81-100%)	5 (5=81-100%)	4 (4=61-80%)	3 (3=41-60%)	5 (5=81-100%)	4 (4=61-80%)	5 (5=81-100%)	5 (5=81-100%)
N#Cc1cccc(Oc2ccc(Cl)cn2)c1-n1cc(C(F)(F)F)cn1 [Compound A32]	4 (4=61-80%)	5 (5=81-100%)	5 (5=81-100%)	5 (5=81-100%)	5 (5=81-100%)	5 (5=81-100%)	5 (5=81-100%)	5 (5=81-100%)	5 (5=81-100%)	5 (5=81-100%)	5 (5=81-100%)	5 (5=81-100%)
Fc1cc(Br)cnc1Oc1cccc(Br)c1-c1cc(C(F)F)no1 [Compound A103]	5 (5=81-100%)	5 (5=81-100%)	3 (3=41-60%)	5 (5=81-100%)	5 (5=81-100%)	5 (5=81-100%)	5 (5=81-100%)	4 (4=61-80%)	5 (5=81-100%)	5 (5=81-100%)	5 (5=81-100%)	5 (5=81-100%)
Fc1cccc(Oc2cccc(C(F)(F)F)n2)c1-c1cc(C(F)F)no1 [Compound A47]	1 (1=0-20%)	1 (1=0-20%)	1 (1=0-20%)	1 (1=0-20%)	1 (1=0-20%)	1 (1=0-20%)	1 (1=0-20%)	1 (1=0-20%)	3 (3=41-60%)	1 (1=0-20%)	3 (3=41-60%)	1 (1=0-20%)
